In paper PMC8258697 (The Journal of Biological Chemistry, 2021):
Where a chain is given by its changes, count along the chain named.

How the values were obtained:
Gal4-RXRα total mutant = biological target: T1, Gal4-RXRα total mutant (Homo sapiens, UniProt P19793, E453R/F450Y/K284E/V280T/V298T); test: Gal4-RXRα total mutant / VP16-SRC1-2 hybrid reporter gene assay in HEK293T cells
T1 sequence (P19793 225-462 V280T/K284E/V298T/F450Y/E453R): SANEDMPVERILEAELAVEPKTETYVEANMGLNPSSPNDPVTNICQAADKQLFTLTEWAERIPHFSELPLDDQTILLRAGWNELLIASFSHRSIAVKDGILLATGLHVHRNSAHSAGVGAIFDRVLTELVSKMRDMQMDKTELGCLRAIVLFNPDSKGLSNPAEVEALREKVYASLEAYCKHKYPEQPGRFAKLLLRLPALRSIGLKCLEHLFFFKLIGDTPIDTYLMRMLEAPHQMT

RXRα wildtype LBD = biological target: T2, RXRα wildtype LBD (Homo sapiens, UniProt P19793); test: Isothermal titration calorimetry, RXRα wildtype LBD; format: binding; conditions: 25°C
T2 construct: MBP-Asn10-His8-TEV site (N, cleaved yes); made in house; host or cells: E. coli T7 express (co-expressed with GroEL/ES)
T2 sequence (P19793 223-462): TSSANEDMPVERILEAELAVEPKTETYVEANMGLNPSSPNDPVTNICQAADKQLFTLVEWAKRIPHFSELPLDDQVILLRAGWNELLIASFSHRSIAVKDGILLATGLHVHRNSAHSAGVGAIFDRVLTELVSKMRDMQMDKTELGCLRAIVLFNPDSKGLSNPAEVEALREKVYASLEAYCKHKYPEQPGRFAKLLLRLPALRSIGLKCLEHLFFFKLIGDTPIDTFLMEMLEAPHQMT
Protocol: SI method 1: LBD pulldown
In order to verify proper dimer formation capability of the majority of the protein preparation a pulldown experiment was performed. Therefore, small centrifugal filter columns (nylon membrane with […] pore size; VWR) were loaded with 20 µl of Pierce® high capacity streptavidin agarose beads (Thermo Scientific) equilibrated in HTRF buffer [25 mM HEPES pH 7.5, 150 mM KF, 10% (w/v) glycerol, 5 mM DTT (fresh)], then 20 µl of a mixture of biotin coupled RXRα LBD (4 µg) and the respective PPAR LBD (1.4 µg) was applied. After incubation for 10 min at room temperature followed by centrifugation for 2 min and 900 x g the input mixture as well as the flowthrough was analyzed via SDS PAGE. Gels were scanned using an Li-Cor Odyssey imager (LI-COR® Biosciences GmbH, Germany). […]
The heats of dilution resulting from titrating one of the RXRα LBD proteins into the cell containing only buffer were recorded separately and subtracted from the raw ITC data obtained with compound. Data were analyzed using the NanoAnalyze software package (version 3.7.5). […] Free energy change (ΔG) was calculated using the equation […]
and from there the entropy (ΔS) was calculated from […]
25 injections of 2 µl were performed after an initial injection of 0.5 µl. […] The heats of dilution resulting from titrating of protein into buffer were recorded separately and subtracted. […]

RXRα LBD mutant = biological target: T3, RXRα LBD mutant (Homo sapiens, UniProt P19793, E453R/F450Y/K284E/V280T/V298T); test: NCOR1 corepressor displacement HTRF assay on sGFP-RXRα mutant LBD; format: biochemical; conditions: 100 nM sGFP-RXRα mutant LBD, 12 nM NCOR1 ID2
T3 construct: His10-tag with TEV site (N, cleaved yes); made in house; host or cells: E. coli T7 express (co-expressed with GroEL/ES)
T3 sequence (P19793 226-462 V280T/K284E/V298T/F450Y/E453R): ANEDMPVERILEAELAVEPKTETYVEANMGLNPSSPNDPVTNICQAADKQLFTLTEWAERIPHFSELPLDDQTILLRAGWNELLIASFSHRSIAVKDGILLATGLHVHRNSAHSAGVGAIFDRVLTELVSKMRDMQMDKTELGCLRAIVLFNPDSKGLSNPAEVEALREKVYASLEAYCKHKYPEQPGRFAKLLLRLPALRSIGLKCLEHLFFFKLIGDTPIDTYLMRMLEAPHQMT

Gal4-RXRα wildtype = biological target: T4, Gal4-RXRα wildtype (Homo sapiens, UniProt P19793); test: Gal4-RXRα wildtype / VP16-SRC1-2 hybrid reporter gene assay in HEK293T cells; conditions: Gal4-RXRα with VP16-SRC1
T4 sequence (P19793 225-462): T1 sequence (P19793 225-462 V280T/K284E/V298T/F450Y/E453R) with T56V, E60K, T74V, Y226F, R229E
T4 sequence (Q15788 676-701 C676S partner): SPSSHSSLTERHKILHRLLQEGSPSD

For `CC1(C)CCC(C)(C)c2cc(C3(c4ccc(C(=O)O)cc4)OCCO3)ccc21` [SR11237], the “transactivation of reporter gene expression” value (Gal4-RXRα total mutant; RXRα mutant, compared with DMSO control) was “substantial increase in transactivation”, the “transactivation by the RXRα mutant in comparison with RXRα wt” value (Gal4-RXRα total mutant; at ≥ 0.1 μM SR11237) was “markedly reduced” and the “binding affinity (ITC)” value (RXRα wildtype LBD) was “comparable affinity”. For the same molecule, the “effect on NCOR1 corepressor binding” value (RXRα LBD mutant) was “Agonist dependent displacement of NCOR1” and the “transactivation of reporter gene expression” value (Gal4-RXRα wildtype) was “substantial increase in transactivation”.
